The results in this text go back to patent US12178817B2, “Compounds for enhancing PPARγ expression and nuclear translocation and therapeutic use thereof” (REALINN LIFE SCIENCE LIMITED, priority 2015, dated 2024).

Data set [1] concerns mice with LPS-induced sepsis. The data set is described as follows: Survival rate analysis in mice with LPS-induced sepsis. The format is in vivo. The settings on record: high dose.
Protocol: Male C57Bl/6J mice, 8-12 weeks of age, were used in this study. They were reared in an air-conditioned environment with 6 am to 18 pm light cycle and fed standard rodent chow ad libitum. […] First, mice were injected intraperitoneally with LPS (16 mg/kg) and followed for 72 hours to observe the survival rate.
The nature of data set [2]: Non-invasive blood pressure measurement in mice after intravenous administration. The settings on record: high dose.
Data set [3] relates to PPARγ. The data set is described as follows: Expression of PPARγ in HEK293 cells treated with LPS and dipyridamole (Western blot of nuclear proteins). The format is cell-based, human. On the technique in general: Immunoblotting shows a protein as a band on a membrane.
Protocol: The cell line used in the assay was human embryonic kidney cells, HEK293. The cells were collected at 0 h, 3 h and 12 h after treatment. The collected cells were washed with 150 μL Buffer A (10 mM Hepes pH=7.9, 1.5 mM MgCl2, 10 mM KCl, 1.0 mM DTT, 0.1% Triton-X 100), and centrifuged at 3000 g for 10 minutes at 4° C. Supernatant containing cytosolic proteins was collected, and the pellets were re-suspended with 50 μL Buffer B (20 mM Hepes pH=7.9, 1.5 mM MgCl2, 0.42M NaCl, 1.0 mM DTT, 1.0M PMSF, 0.2 mM EDTA) and incubated on ice for 30 minutes followed by centrifuging at 12000 g for 10 minutes at 4° C. Supernatant containing nucleic proteins was then collected, and the expression of P65 protein, which is indicative of the activation of PPARγ, was analyzed using Western blotting. The method is as follows: Protein concentration was measured using Bradford assay. 6× sample buffer (0.8 mM Tris-HCl, 10 mM EDTA, 10% SDS, 60% glycerol, 0.6 M β-mercaptoethano, 0.06% bromophenol blue, pH 6.8) was added into 50 μg of nuclear proteins and an equal volume of lysis buffer was added into the samples. After being heated at 95° C. for 10 minutes to denature the proteins, the samples were immediately cooled on ice. […] Photos of the images were taken using automated chemiluminescence and fluorescence imaging system (UVP Biospectrum). […]

For `OCCN(CCO)c1nc(N2CCCCC2)c2nc(N(CCO)CCO)nc(N3CCCCC3)c2n1` [dipyridamole], the “effect on physiological conditions and survival rate” value in data set [1] was “influences physiological conditions and survival rate”. For the same compound, the “effect on blood pressure” value in data set [2] is recorded as “leads to changes in blood pressure”. For the same compound, the “PPARγ expression and nuclear translocation” value in data set [3] was “promote PPARγ expression and nuclear translocation”.
